Reference: PubChem BioAssay (NCI)
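All cell lines were grown in 96-well plates and treated with compound for 48 hours. TGI: concentration producing complete growth inhibition.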

Key:
Assay in all cases: growth of human tumour cells (NCI), 48 h
A549 NSCLC = system: A549 NSCLC
BT-549 breast = system: BT-549 breast
EKVX NSCLC = system: EKVX NSCLC
HOP-62 NSCLC = system: HOP-62 NSCLC
SK-MEL-5 melanoma = system: SK-MEL-5 melanoma
UACC-62 melanoma = system: UACC-62 melanoma
MDA-MB-231 breast = system: MDA-MB-231 breast
SF-295 CNS = system: SF-295 CNS
IGROV1 ovarian = system: IGROV1 ovarian
COLO 205 colon = system: COLO 205 colon
SR leukemia = system: SR leukemia
CCRF-CEM leukemia = system: CCRF-CEM leukemia

SMILES | TGI (A549 NSCLC) [µM] | TGI (BT-549 breast) [µM] | TGI (EKVX NSCLC) [µM] | TGI (HOP-62 NSCLC) [µM] | TGI (SK-MEL-5 melanoma) [µM] | TGI (UACC-62 melanoma) [µM] | TGI (MDA-MB-231 breast) [µM] | TGI (SF-295 CNS) [µM] | TGI (IGROV1 ovarian) [µM] | TGI (COLO 205 colon) [µM] | TGI (SR leukemia) [µM] | TGI (CCRF-CEM leukemia) [µM]
CC1=NC2=Nc3nc(C)cc[n+]3CN2C=C1 | > 100 | > 100 | 75.8 | > 100 | > 100 | > 100 | > 100 | > 100 | > 100 | > 100 |  | 
CC(C)(C)OC(=O)NC1CC2(C=C(Br)C(=O)C(Br)=C2)OC1=O (centres undefined) | 38.7 | 30.3 | 27.5 | 36.8 | 31.1 | 32.4 | 32.6 | 38.9 | 31.2 | 13.4 | 4.18 | 
CC(C)(C)OC(=O)N(CCCCNC(=O)OCc1ccccc1)CCCNC(=O)OCc1ccccc1 | > 100 | > 100 | > 100 | > 100 | 22.5 | > 100 | > 100 | > 100 | > 100 | > 100 | > 100 | > 100
COC(=O)c1ccc(/C=C2\Oc3ccccc3C2=O)cc1 | > 100 | > 100 | > 100 | > 100 | > 100 | > 100 | > 100 | > 100 | > 100 | > 100 | > 100 | > 100
O=C(/C=C/c1ccccc1)CSc1ncn[nH]1 | > 100 | > 100 | > 100 | > 100 | > 100 | > 100 |  | > 100 | > 100 | > 100 | > 100 | > 100
COC(=O)CCC1=C(CC(=O)OC)C(C)(OC)N=C1NC(=O)OCc1ccccc1 (centres undefined) | > 100 | > 100 | > 100 | > 100 | > 100 | > 100 | > 100 | > 100 | > 100 | > 100 | > 100 | > 100
O=S(=O)(Nc1nc2ccccc2nc1Nc1ccc2ccccc2c1)c1ccccc1 | > 100 | > 80.1 | > 100 | 30.8 | 42.6 | 43.8 | > 100 | 47.3 | > 57.9 | 26.3 | > 87.4 | > 77.3
COc1c(/C=C/C(C)(C)O)cc(C2CC(=O)c3c(O)cc(O)cc3O2)cc1CC=C(C)C (centres undefined) | 19.8 | 15.8 |  |  | 15.6 | 13.3 | 15.1 | 14.8 |  | 17.7 |  | > 50
c1ccc(C(NCC2CCO2)(c2ccccc2)c2ccccc2)cc1 (centres undefined) | 30.6 | 38.7 | 30.8 |  | 63.9 | 32 | 70.1 | 28.9 | 32.7 | > 100 | > 100 | > 100
CN(C)CCNC(=O)c1ccc(NCCCN(C)CCCNc2ccc(C(=O)NCCN(C)C)c3[nH]c4ccccc4c(=O)c23)c2c(=O)c3ccccc3[nH]c12 | 0.313 | 1.63 | 0.674 | 0.459 | 1.5 | 0.353 | 0.309 | 1.31 | 2.07 | 0.294 | 0.532 | 0.406
O=C(O)C(O)C(O)C(=O)O (centres undefined) | > 100 | > 100 | > 100 | > 100 | > 100 | > 100 | > 100 | > 100 | > 100 | > 100 | > 100 | > 100
O=C(OC1C2OC(=O)c3cc(O)c(O)c(O)c3Oc3cc4c(c(O)c3O)-c3c(cc(O)c(O)c3O)C(=O)OCC3OC(O)C(OC(=O)c5cc(O)c(O)c(O)c5Oc5cc6c(c(O)c5O)-c5c(cc(O)c(O)c5O)C(=O)OC1C(COC6=O)OC2O)C(OC(=O)c1cc(O)c(O)c(O)c1)C3OC4=O)c1cc(O)c(O)c(O)c1 (centres undefined) | 39.7 |  | 37.9 | 54.3 | > 100 | 68.5 | 68.4 | 57.5 | > 100 | 54 | 27.3 | > 100
Cc1nc(C)c(N2CCN(S(=O)(=O)N(Cc3ccccc3)Cc3ccccc3)CC2)c(=O)[nH]1 | > 100 | > 100 | > 100 | 37.9 | > 100 | > 100 | > 64.5 | > 83.6 | > 100 | > 100 | > 100 | > 100
CCCC(CCC(N)=O)(CCC(N)=O)[N+](=O)[O-] | > 100 | > 100 | > 100 |  | > 100 | > 100 | > 100 | > 100 | > 100 | > 100 | > 100 | > 100
CN1C/C(=C\c2cccs2)C(O)/C(=C/c2cccs2)C1 (centres undefined) | > 100 | > 100 | > 100 | > 100 | > 100 | > 100 | > 100 | > 100 | > 100 | > 100 |  | 52.7
CCN(CC)CCCNc1ccc2nc(C)n3c4ccc(O)cc4c(=O)c1c23 | 18.7 | 25.6 | 24.4 | 19.1 | 24.5 | 23.5 |  | 19.6 | 9.79 | 20.3 |  | 46.7
CN(C)c1ccc(C=NCC2CCCN3CCCCC23)cc1 (centres undefined) | > 100 | > 100 | > 100 | > 100 | > 100 | > 100 | > 100 | > 100 | > 100 | > 100 |  | 
O=C1C(Br)=C(c2ccccc2)O/C1=C/C(=O)c1ccc(Br)cc1 |  | 25.5 | > 100 | > 100 | > 100 | > 100 | > 100 |  | > 100 | > 100 | > 100 | > 100
Cc1cnc2sn(-c3ccc([N+](=O)[O-])cc3)c(=O)c2c1 | > 100 | > 100 | > 100 | 52.4 | > 100 | > 100 | > 100 | > 100 | > 100 | > 100 | > 100 | 
